# Measurements reported in a melting point compilation (Tetko et al.; mined from patent text by program, amines drawn as free bases though some values may be those of a salt).
row,Structure (SMILES),melting point [°C]
1,Cc1ccc(C(=O)Nc2cc(C(F)(F)F)ccn2)cc1/C=C/n1cnc2c(NC3CC3)ncnc21,232
2,COC(=O)c1ccccc1S(=O)(=O)NC(=O)Nc1nc(C)cc(COC(C)=O)n1,145 to 150
3,O=C(O)c1cn(C2COC2)c2c(F)c(N3CCNCC3)cc(F)c2c1=O,> 300
4,CC(=O)CC(=O)OC(C)N=C(O)c1cc(C(=N)O)c(C(=O)O)cc1C(=O)O (centres undefined),161 to 163
5,CCN(CC)CC(O)CNC(=O)c1c(OC(=O)c2ccccc2)c2ccccc2n1-c1ccccc1 (centres undefined),130 to 133
6,COC1OCC[C@@H]1NC(=O)CN(CC(C)C)C(=O)CNC(=O)COc1ccc2c(c1)Nc1ccccc1S2 (some centres undefined),162 to 164
7,CCOc1ccc2c(c1)n(C13CC4CC(CC(C4)C1)C3)c(=O)n2S(=O)(=O)c1ccc(NC(=O)N(CC)CC)cc1OC,221
8,CN1C(=O)C(c2cccc(O)c2)(c2cnn(CC(F)(F)F)c2)N=C1N (centres undefined),118 to 120
9,COc1ccc(-n2c(-c3ccc(Cl)cc3Cl)nc(C(=O)O)c2C)cc1,189 to 191
10,O=C1c2ccccc2COc2ccc(CCCCl)cc21,69 to 72
11,CC(C)Cn1c(CNC(=O)C2CC2)nc2c(N)nc3ccccc3c21,215 to 216
12,CCCCCCCCc1ccc(N(c2ccc(CCCCCCCC)cc2)C2(c3ccc(N(C)C)cc3)OC(=O)c3cc(N(C)C)ccc32)cc1 (centres undefined),208 to 210
13,CC(=O)Nc1nc2c(Oc3cc(-c4ccc(C(F)(F)F)cc4NC(=O)C4CCCCN4CC4CC4)ncn3)cccc2s1 (centres undefined),212 to 214
14,COc1ccc(-n2ncc(-c3ccc(S(C)(=O)=O)cc3)c(-c3ccc(F)cc3)c2=O)cc1F,97 to 101
15,COc1nc2c(Cl)c(Cl)c(Cl)c(Cl)c2n1COC(CO)CO,192
16,CC(=O)Nc1ccc(Sc2cccn3nc(Cl)nc23)cc1,148 to 150
17,O=C(Nc1ccc(F)cc1F)N(Cc1ccccc1)CC(c1ccccc1)c1ccccc1,120 to 123
18,CCC(Oc1cc(Cl)cc(Cl)c1)C(=O)NC(C)(C)C#CCCO (centres undefined),104 to 106
19,CS(=O)(=O)c1ccc2c(c1)S(=O)(=O)NCN2CCF,193 to 195
20,COc1cc2c(N)nc(N3CCN(C(=O)C4COc5ccccc5O4)CC3)nc2c(OC)c1OC (centres undefined),269 to 271
21,O=c1oc(-c2ccccc2)nc2cccc(Cl)c12,151 to 153
22,Cc1sc2c(c1C(=O)CCCl)NC(=O)CCC2,86 to 87
23,CC(C)Cn1c(CO)nc2cnc3ccccc3c21,165 to 168
24,CCOC(=O)c1c(OCc2ccc(-c3ccccc3-c3nnn(C(c4ccccc4)(c4ccccc4)c4ccccc4)n3)cc2)cc(C)nc1C,136 to 138

row,Structure (SMILES),melting point [°C]
1,CCc1ccc(C(=O)Nc2ccccc2)cc1Nc1cccc(C(F)(F)F)c1,133 to 134
2,CCN1C(=O)C(C)(C)C(=O)N(C)c2cc(CN(CCc3ccc(C)nc3C)Cc3scnc3C)ccc21,136 to 137
3,COc1ccc(CNn2c(=O)ccc3ccc(Cl)nc32)cc1Cl,151 to 154
4,Cc1c(C)c2c(c(C)c1OCc1ccc(S(C)=O)cc1)C(c1ccc(C(C)C)cc1)C(C)(C)O2 (centres undefined),132 to 134
5,COCCOC(=O)OC[C@@H](O)[C@@H]1CC(c2ccc(-c3ccc(N4C[C@H](Cn5ccnn5)OC4=O)cc3F)cn2)=NO1,125
6,Nc1cccc(C(=O)NCc2ccccc2)c1,95 to 100
7,O=C(O)c1cn(CCF)c2cc(F)c(F)cc2c1=O,249 to 251
8,Cc1ccc(S(=O)(=O)Oc2ccc(S(=O)(=O)C3Cc4ccccc4C3Cl)cc2)cc1 (centres undefined),176
9,CC(=O)C1CCC2C3CCC4=CC(=O)C=CC4(C)C3=CCC12C (centres undefined),161 to 163
10,O=C1C(=O)c2ccc(-c3cccnc3)cc2C2=C1SCC1(CCNCC1)O2,213 to 215
11,C=C1N(c2cccc3ccccc23)C(=O)OC12CCN(Cc1ccccc1)CC2,130 to 131
12,CCNC(=O)N(C)c1c(C)cc(C(O)(C(F)(F)F)C(F)(F)F)cc1C,178 to 179
13,Cc1nc(-n2cc(COc3ccccc3)nn2)sc1C(=O)NCc1ccccc1,140 to 143
14,COc1ccc2c3ccc(OC)cc3n(-c3ccccc3OC)c2c1,148
15,CC(OC(=O)C1CCNCC1)C(c1ccccc1)(c1ccccc1)c1ccccc1 (centres undefined),154 to 155
16,CC(C)(C)OC(=O)NN=Cc1ccc(-c2ccccn2)cc1,169 to 172
17,Cc1nc2cccnc2n(-c2ccc(Cl)cc2)c1=O,245 to 246
18,CCCCc1nn(-c2cc(NC(C)=O)ccc2Cl)c(=O)n1Cc1ccc(-c2cc(CCC)ccc2S(=O)(=O)NC(=O)c2ccccc2Cl)cc1F,144 to 146
19,COC(=O)[C@H](Cc1ccc(OC(C)=O)c(OC(C)=O)c1)NC(=O)CNC(=O)OCc1ccccc1,130 to 131
20,Cc1cc2c(cc1O)C(C)(C)CC1(CC(C)(C)c3cc(OCCCn4cccn4)c(C)cc3O1)O2 (centres undefined),239 to 241
21,CC(=O)N(CC(=O)N1CC1C#N)c1ccccc1 (centres undefined),69 to 75
22,CCc1c([N+](=O)[O-])c(C(N)=O)nn1C[C@H]1CCCN1C,111 to 116
23,CCCCN(CCCC)CCCCOc1ccc(S(=O)(=O)c2c(C(C)C)cn3ccccc23)cc1,96
24,O=C(NC(Cc1ccccc1)C(=O)O)c1ccccc1 (centres undefined),183 to 184

row,Structure (SMILES),melting point [°C]
1,O=C1CCC(C(=O)N2CCN(CC(=O)N3CCOCC3)CC2)N1 (centres undefined),167 to 169
2,CN(C)CCOCc1ccc2[nH]nc(S(=O)(=O)c3cccc4ccccc34)c2c1,> 200
3,CCOC(=O)C(CCc1ccccc1)NC1CSC(c2cccs2)CN(CC(=O)O)C1=O (centres undefined),168
4,Cc1cc(NC2=NCCN2)n(-c2ccccc2C)n1,168 to 169
5,COc1nc(=O)n(-c2ccc(Cl)cc2C)c(=O)[nH]1,193 to 195
6,NC(=O)c1ncn2c1[C@@H]1CCN1C(=O)c1sccc1-2,> 250
7,CCOC(=O)C(CCc1ccccc1)N[C@H]1CSC(c2ccccc2)N(CC(=O)O)C1=O (some centres undefined),47 to 52
8,CC(C(=O)O)c1cccc(NC(=O)NCC(=O)N2[C@@H](c3ccccc3)CC[C@H]2C(=O)OC(C)(C)C)c1 (some centres undefined),120
9,"COC(=O)C1=C(C)NC(C)=C(C(=O)O)C1c1ccccc1 (single isomer, unassigned; (-))",158 to 159
10,O=C(C=Cc1ccco1)CCCCCl,50 to 52
11,CCN(CC)c1ccc(-n2c(C(F)(F)F)nn(C)c2=S)c(Cl)c1,108 to 110
12,CN(C(=O)Nc1nc(OCC(F)(F)F)cc(OCC(F)(F)F)c1F)c1ccc(Br)cc1,89 to 90
13,O=C(NC[C@@H](C(=O)NO)N1CCCCC1)c1ccc(OCc2ccncc2)cc1,190
14,CC(C)(C)n1c(=O)[nH]c2ccccc21,146 to 147
15,CC(=O)Nc1ccn(C2OC(COC(C)=O)CC2OC(C)=O)c(=O)n1 (centres undefined),174 to 177
16,COC(=O)NCCOC(=O)C(C)Oc1ccc(OCc2ccccc2)cc1 (centres undefined),79 to 81
17,CCOC(=O)c1c(N2CCN(C)CC2)c2cc(Cl)ccc2n(C)c1=O,163 to 165
18,CCOC(=O)C(Cc1ccc(Cl)cc1)NC(=S)Nc1ccc(C(C)C)cc1 (centres undefined),73 to 75
19,O=C(Nc1ccc(-n2nc(C(F)(F)F)cc2C(F)(F)F)cc1)c1ccc(CO)cc1,213 to 214
20,Cc1c2c(nn1-c1ccccc1)c(=O)[nH]c1ccccc12,> 250
21,COc1cc(C(=O)Nc2nc(C)c(C(=O)NCc3ccccc3)s2)ccn1,188 to 190
22,COc1ccccc1SCC1SCCN1C(=O)CCl (centres undefined),127 to 129
23,CN(Cc1cc2ccccc2n1C)C(=O)/C=C/c1ccc(NC(=O)CCC(N)=O)nc1,225 to 227
24,CCOCc1nc2c(N)nc3ccccc3c2n1NCc1ccccc1,152 to 155

row,Structure (SMILES),melting point [°C]
1,C[C@H]1C(=O)NC(=O)N1CC(=O)Nc1c2c(nc3ccccc13)CCCC2,260 to 263
2,O=C1c2cc(F)ccc2-n2c1nc1ccc(F)cc1c2=O,295 to 296
3,O=c1[nH]c(N2CCOCC2)nc2c1C=CCC2,228 to 230
4,Cc1oc(-c2ccc(S(C)(=O)=O)cc2)c(Oc2ccc(F)cc2)c(=O)c1Cl,279
5,CCN1C(=O)C(C(=O)Nc2cccc(C(=O)Nc3ccc(Br)cc3)c2)c2cc(C(=O)c3ccccc3)ccc21 (centres undefined),139 to 142
6,N#CSCCNc1ccccc1[N+](=O)[O-],112 to 113
7,OCC1(CO)C=CC(c2ccccc2)=CC1,187 to 188
8,CCOC(=O)C1(CC(C)=O)OC(=O)C(=O)C1C(C)=O (centres undefined),87 to 88
9,CCSc1cc(C)nc(SCC)c1NC(=O)CCCCCCCCSc1nc2ccccc2s1,88 to 92
10,CCCOc1ccccc1C=C(C=O)C(C=O)=Cc1ccccc1OCCC,109 to 110
11,Cc1ccc(S(=O)(=O)n2ccc3c(C=O)cccc32)cc1,144 to 146
12,CCCn1cnc2c1c(=O)n(CCCCC(C)=O)c(=O)n2CC,81 to 82
13,Cc1c(NC(=O)c2cccc(OCC(=O)OC(C)(C)C)c2)c2ccccn2c1C(=O)c1ccc(NC(=O)C(F)(F)F)c(C(=O)OCc2ccccc2)c1,200
14,Nc1nc2c(s1)CC(CN1CCN(c3ccccn3)CC1)CC2 (centres undefined),177 to 179
15,CCC(C)(C)Nc1c(NCc2cc(C)ccc2C)c(=O)c1=O,199 to 200
16,CSc1nsc(N)c1C#N,188 to 189
17,Cc1ccnc(F)c1N,63 to 64
18,CCCCOc1c(N(C)C(=O)OC(C)(C)C)n(CC(C)C)c(=O)c2ccc(-c3cnco3)cc12,152 to 153
19,CCOC(=O)CCCCCOc1cc(C=CC2=C(C#N)C(=C(C#N)C#N)OC2(C)C)ccc1N,164
20,CC/C(=C(\c1ccc(I)cc1)c1ccc(OCCCCCS(=O)CCCC(F)(F)C(F)(F)F)cc1)c1ccccc1 (centres undefined),85 to 87
21,O=C(Nc1cccc(C(F)(F)F)c1)C(=O)N1CCC(Cc2ccc(F)cc2)CC1,113 to 115
22,CC(C)C(NS(=O)(=O)c1ccc(-c2cccc(CNC(=O)c3nc4ccccc4c(=O)[nH]3)c2)cc1)C(=O)O (centres undefined),141 to 143
